Patent US20140088306A1, “RADIOACTIVE FLUORINE-LABELED QUINOXALINE COMPOUND” (Nihon Medi-Physics Co., Ltd., priority 2012, published 2014)
“Also recorded” adds a separate entry of the source.

How the values were obtained:
[1] = tested on: Aβ plaques; assay: In vitro autoradiography using postmortem brain section from Alzheimer's disease (Examples 14, 15); type: binding, human (Alzheimer's disease patient); details: brain section of Alzheimer's disease patient
Protocol: A postmortem autopsy brain tissue of a patient with Alzheimer's disease identified by postmortem dissection was obtained from Graduate School of Medicine, Kyoto University. The presence and location of senile plaques in the section were confirmed by immunohistochemical staining using an anti-Aβ1-42 antibody. The section was incubated together with [^18F]D1 or [^18F]D2 (0.37 MBq/100 μL) at room temperature for 1 hour. The resultant was immersed in a 50 volume % ethanol aqueous solution (2 minutes×2) and washed with water (2 minutes×2). After drying, the section was exposed to BAS imaging plate (from Fujifilm Corporation) for 1.5 hours. The image of autoradiography was obtained using BAS5000 scanner system (from Fujifilm Corporation).
A postmortem autopsy brain tissue of a patient with Alzheimer's disease identified by postmortem dissection was obtained from Graduate School of Medicine, Kyoto University, and serial sections […] of a paraffin-embedded brain tissue were used. First, they were each incubated with xylene (15 minutes×2), ethanol (1 minute×2), a 90 volume % ethanol aqueous solution (1 minute×2), and a 70 volume % ethanol aqueous solution (1 minute×1) in that order to perfectly perform deparaffinization, and then washed in water (2.5 minutes×2). Thereafter, for antibody recovery, the section was subjected to autoclave treatment for 15 minutes in 0.01 mol/L citrate buffer solution (pH 6.0). The resultant was incubated in PBS-Tween20 (5 minutes×2), and, for antibody recovery, incubated in a 90 volume % formic acid aqueous solution at room temperature for 5 minutes. The section was washed for 5 minutes with flowing tap water, and then incubated in PBS-Tween20 (2 minutes×1). The section was incubated with a mouse anti-Aβ1-42 monoclonal primary antibody (from Wako Pure Chemical Industries Ltd.) at room temperature overnight. The resultant was incubated in PBS-Tween20 (5 minutes×3) and then incubated together with biotin goat anti-mouse IgG (from Funakoshi Co., Ltd.) at room temperature for 1 hour. […]

[2] = In vivo radioactivity distribution experiment in normal mouse (Example 16); design: species or system ddY mice; details: for Radioactivity Amount, Blood / Radioactivity Amount, Bone / Radioactivity Amount, Brain / Radioactivity Amount, Heart / Radioactivity Amount, Intestine / Radioactivity Amount, Kidney / Radioactivity Amount, Liver / Radioactivity Amount, Lung / Radioactivity Amount, Pancreas / Radioactivity Amount, Spleen / Radioactivity Amount, Stomach*: normal ddY mice, tail vein, average for 5 mice (SD)
Protocol: An ethanol (10 μL)-containing saline solution of [^18F]D1 (25.8 kBq) or [^18F]D2 (48.2 kBq) (100 μL) was injected into the tail vein of ddY mice (male, 5-week old). Five mice were used for each group and sacrificed 2, 10, 30, and 60 minutes after administration to remove major organs. The blood and organs were weighed and further measured for radioactivity using a γ counter (Wallac 1470 Wizard 3, from Perkin-Elmer). The percent injected dose per organ was calculated by comparing tissue counts with suitably diluted aliquots of the injected material. The percent injected dose/g of each sample was calculated by comparing sample counts with the counts of the diluted initial dose.

[3] = target: T1, Aβ1-42 aggregates (Homo sapiens, UniProt P05067); assay: Binding evaluation using Aβ peptide aggregation in solution (Example 13); details: for Ki: inhibition of [^125I]IMPY binding to Aβ1-42 aggregates, value following ± shows SE, read-out: Kl
T1 construct: Aβ1-42 aggregates (Peptide Institute, Inc, Osaka) were dissolved in 0.1 mol/L phosphate-buffered saline; purchased Peptide Institute, Inc., Osaka
Protocol: Aβ1-42 peptide (Peptide Institute, Inc., Osaka) was gently dissolved at a concentration of 0.25 mg/mL in a PBS solution (pH 7.4), which was then incubated at 37° C. for 42 hours to prepare an Aβ1-42 aggregate PBS solution.
Thereafter, the resultant was filtered through Whatman (R) GF/B filter using a Brandell M-24 cell harvester, and the radioactivity of the filter was measured using a γ counter (Wallac 1470 Wizard, from Perkin-Elmer).
The half inhibition concentration (IC50) value was determined from a replacement straight line using GraphPad Prism 5.0, and the inhibition constant (Ki) was calculated using the Cheng-Prusoff equation: the above-described Expression (1).

T1 sequence (P05067 672-713 limits assumed): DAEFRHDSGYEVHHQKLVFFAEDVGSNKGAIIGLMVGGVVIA

Q: Which “binding to / background in the white matter by autoradiography” value [1] does the source give for “4-(6-(2-[^18F]Fluoroethoxy)quinoxalin-2-yl)-N-methylaniline [[^18F]D2]” here?
A: low degree of background in the white matter

Q: And the “labeling of Aβ plaques by autoradiography” value ([1]; 0.37 MBq/100 μL, 1 hour)?
A: provided a strong marker for Aβ plaques; also recorded: corresponded to the results of antibody immunohistochemical staining

Q: What about the “Radioactivity Amount, Blood” value ([2]; 2 min. after) of the same compound?
A: 3.91 (0.22) % injected dose/g

Q: And the “Radioactivity Amount, Blood” value ([2]; 10 min. after)?
A: 3.35 (0.43) % injected dose/g

Q: What about the “Radioactivity Amount, Blood” value ([2]; 30 min. after) of the same compound?
A: 3.83 (0.18) % injected dose/g

Q: And the “Radioactivity Amount, Blood” value ([2]; 60 min. after)?
A: 4.15 (0.31) % injected dose/g

Q: And the “Radioactivity Amount, Bone” value ([2]; 2 min. after)?
A: 2.81 (0.52) % injected dose/g

Q: What about the “Radioactivity Amount, Bone” value ([2]; 10 min. after) of the same compound?
A: 2.12 (0.11) % injected dose/g

Q: And the “Radioactivity Amount, Bone” value ([2]; 30 min. after)?
A: 2.86 (0.45) % injected dose/g

Q: What about the “Radioactivity Amount, Bone” value ([2]; 60 min. after) of the same compound?
A: 4.26 (0.29) % injected dose/g

Q: What about the “Radioactivity Amount, Brain” value ([2]; 2 min. after) of the same compound?
A: 6.19 (0.30) % injected dose/g

Q: And the “Radioactivity Amount, Brain” value ([2]; 10 min. after)?
A: 5.11 (0.28) % injected dose/g

Q: And the “Radioactivity Amount, Brain” value ([2]; 30 min. after)?
A: 2.73 (0.16) % injected dose/g

Q: What about the “Radioactivity Amount, Brain” value ([2]; 60 min. after) of the same compound?
A: 2.41 (0.12) % injected dose/g

Q: What about the “Radioactivity Amount, Heart” value ([2]; 2 min. after) of the same compound?
A: 6.12 (0.45) % injected dose/g

Q: And the “Radioactivity Amount, Heart” value ([2]; 10 min. after)?
A: 3.93 (0.40) % injected dose/g

Q: What about the “Radioactivity Amount, Heart” value ([2]; 30 min. after) of the same compound?
A: 3.20 (0.32) % injected dose/g

Q: What about the “Radioactivity Amount, Heart” value ([2]; 60 min. after) of the same compound?
A: 3.80 (0.22) % injected dose/g

Q: And the “Radioactivity Amount, Intestine” value ([2]; 2 min. after)?
A: 3.40 (0.34) % injected dose/g

Q: What about the “Radioactivity Amount, Intestine” value ([2]; 10 min. after) of the same compound?
A: 8.06 (0.95) % injected dose/g

Q: What about the “Radioactivity Amount, Intestine” value ([2]; 30 min. after) of the same compound?
A: 12.13 (2.05) % injected dose/g

Q: What about the “Radioactivity Amount, Intestine” value ([2]; 60 min. after) of the same compound?
A: 13.37 (1.03) % injected dose/g

Q: And the “Radioactivity Amount, Kidney” value ([2]; 2 min. after)?
A: 9.86 (0.77) % injected dose/g

Q: What about the “Radioactivity Amount, Kidney” value ([2]; 10 min. after) of the same compound?
A: 6.40 (0.62) % injected dose/g

Q: What about the “Radioactivity Amount, Kidney” value ([2]; 30 min. after) of the same compound?
A: 4.14 (0.31) % injected dose/g

Q: What about the “Radioactivity Amount, Kidney” value ([2]; 60 min. after) of the same compound?
A: 3.08 (0.21) % injected dose/g

Q: What about the “Radioactivity Amount, Liver” value ([2]; 2 min. after) of the same compound?
A: 8.81 (1.00) % injected dose/g

Q: What about the “Radioactivity Amount, Liver” value ([2]; 10 min. after) of the same compound?
A: 9.29 (0.40) % injected dose/g

Q: What about the “Radioactivity Amount, Liver” value ([2]; 30 min. after) of the same compound?
A: 7.07 (0.19) % injected dose/g

Q: And the “Radioactivity Amount, Liver” value ([2]; 60 min. after)?
A: 6.10 (0.41) % injected dose/g

Q: What about the “Radioactivity Amount, Lung” value ([2]; 2 min. after) of the same compound?
A: 8.13 (1.13) % injected dose/g

Q: What about the “Radioactivity Amount, Lung” value ([2]; 10 min. after) of the same compound?
A: 5.10(0.74) % injected dose/g

Q: What about the “Radioactivity Amount, Lung” value ([2]; 30 min. after) of the same compound?
A: 3.94 (0.33) % injected dose/g

Q: And the “Radioactivity Amount, Lung” value ([2]; 60 min. after)?
A: 3.92 (0.11) % injected dose/g

Q: And the “Radioactivity Amount, Pancreas” value ([2]; 2 min. after)?
A: 6.47 (0.75) % injected dose/g

Q: What about the “Radioactivity Amount, Pancreas” value ([2]; 10 min. after) of the same compound?
A: 3.88 (0.52) % injected dose/g

Q: And the “Radioactivity Amount, Pancreas” value ([2]; 30 min. after)?
A: 2.72 (0.29) % injected dose/g

Q: What about the “Radioactivity Amount, Pancreas” value ([2]; 60 min. after) of the same compound?
A: 2.64 (0.34) % injected dose/g

Q: And the “Radioactivity Amount, Spleen” value ([2]; 2 min. after)?
A: 3.14 (0.55) % injected dose/g

Q: What about the “Radioactivity Amount, Spleen” value ([2]; 10 min. after) of the same compound?
A: 3.76 (0.55) % injected dose/g

Q: And the “Radioactivity Amount, Spleen” value ([2]; 30 min. after)?
A: 3.07 (0.32) % injected dose/g

Q: And the “Radioactivity Amount, Spleen” value ([2]; 60 min. after)?
A: 2.99 (0.21) % injected dose/g

Q: And the “Radioactivity Amount, Stomach*” value ([2]; 2 min. after)?
A: 1.32 (0.21) % injected dose per organ

Q: And the “Radioactivity Amount, Stomach*” value ([2]; 10 min. after)?
A: 1.86 (0.38) % injected dose per organ

Q: What about the “Radioactivity Amount, Stomach*” value ([2]; 30 min. after) of the same compound?
A: 2.44 (0.62) % injected dose per organ

Q: What about the “Radioactivity Amount, Stomach*” value ([2]; 60 min. after) of the same compound?
A: 2.00 (0.76) % injected dose per organ

Q: Which Ki [3] does the source give for `Nc1ccc(-c2cnc3cc(OCCF)ccc3n2)cc1` [Compound D1, 4-(6-(2-Fluoroethoxy)quinoxalin-2-yl)aniline] here?
A: 242 ± 29 nM

Q: What does the source list for `CNc1ccc(-c2cnc3cc(OCCF)ccc3n2)cc1` [Compound D2, 4-(6-(2-Fluoroethoxy)quinoxalin-2-yl)-N-methylaniline]?
A: binding affinity relative to D1 ([3]; Ki of D2 compared with D1): ≥ 10 times; Ki [3]: 15.7 ± 1.28 nM

Q: For `Nc1ccc(-c2cnc3cc(OCC[18F])ccc3n2)cc1` [[^18F]D1, 4-(6-(2-[^18F]Fluoroethoxy)quinoxalin-2-yl)aniline], which “binding to / background in the white matter by autoradiography” value [1] is on record?
A: high non-specific binding to the white matter

Q: And the “Radioactivity Amount, Liver” value ([2]; 2 min. after)?
A: 5.30 (1.33) % injected dose/g

Q: And the “Radioactivity Amount, Liver” value ([2]; 10 min. after)?
A: 6.58 (0.47) % injected dose/g

Q: What about the “Radioactivity Amount, Liver” value ([2]; 30 min. after) of the same compound?
A: 4.90 (0.29) % injected dose/g

Q: What about the “Radioactivity Amount, Liver” value ([2]; 60 min. after) of the same compound?
A: 4.88 (0.30) % injected dose/g

Q: And the “amount of radioactivity in the brain” value ([2]; mouse, in vivo)?
A: 2.41-3.08 % ID/g
